According to ChEMBL document CHEMBL5247574, “Recent Progress on Bile Acid Receptor Modulators for Treatment of Metabolic Diseases” (J Med Chem, 2016):
pEC50, pIC50, pKd: −log10 of the molar value. Values after ≈ are worked out from the molar mass of the structure shown. Blank lines part the entries; values can stand above or below the compound they belong to.

Experiments:
[1] = Clearance in human liver microsomes; assay type: ADME, Microsome; details: microsomes
[2] = Clearance in mouse liver microsomes; assay type: ADME, Microsome; details: microsomes
[3] = target: T1, G-protein coupled bile acid receptor 1 (Mus musculus, UniProt Q80SS6); experiment: Agonist activity at mouse TGR5
T1 sequence (Q80SS6 whole entry): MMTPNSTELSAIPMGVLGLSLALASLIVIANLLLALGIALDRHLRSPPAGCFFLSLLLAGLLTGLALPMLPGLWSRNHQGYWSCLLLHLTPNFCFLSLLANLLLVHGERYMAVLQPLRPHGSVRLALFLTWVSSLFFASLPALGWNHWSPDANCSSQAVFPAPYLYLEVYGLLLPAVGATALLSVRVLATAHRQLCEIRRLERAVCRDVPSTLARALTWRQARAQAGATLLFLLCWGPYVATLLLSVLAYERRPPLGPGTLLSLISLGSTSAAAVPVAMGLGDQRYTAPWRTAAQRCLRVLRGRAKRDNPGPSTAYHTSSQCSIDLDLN

[4] = Aqueous solubility of compound; assay type: physicochemical; details: buffer
[5] = target: T2, G-protein coupled bile acid receptor 1 (Homo sapiens, UniProt Q8TDU6); experiment: Agonist activity at human TGR5 expressed in human HEK293 cells measured after 5.5 hrs by steady-glo luciferase assay; assay type: cell-based
T2 sequence (Q8TDU6 whole entry): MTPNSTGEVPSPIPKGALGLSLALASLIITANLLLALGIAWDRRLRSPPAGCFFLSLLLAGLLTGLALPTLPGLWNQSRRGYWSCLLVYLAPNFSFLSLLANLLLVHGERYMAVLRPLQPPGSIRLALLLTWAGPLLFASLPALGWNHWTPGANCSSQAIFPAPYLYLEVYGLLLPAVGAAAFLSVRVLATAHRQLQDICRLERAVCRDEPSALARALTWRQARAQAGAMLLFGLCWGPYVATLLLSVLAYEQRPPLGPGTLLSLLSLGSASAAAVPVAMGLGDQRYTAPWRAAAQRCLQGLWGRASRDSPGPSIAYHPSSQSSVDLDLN

[6] = target: T3, G-protein coupled bile acid receptor 1 (Homo sapiens) (UniProt Q8TDU6); experiment: Agonist activity at human TGR5 expressed in human HEK293 cells at 20 uM measured after 5.5 hrs by steady-glo luciferase assay relative to control; assay type: cell-based; details: filed as agonist
T3 sequence (whole entry): T2 sequence (Q8TDU6 whole entry)

[7] = target: T2, G-protein coupled bile acid receptor 1; experiment: Agonist activity at human TGR5 transfected in CHO cells assessed as increase in cAMP production; assay type: cell-based
Bile acid receptor [8] = target: T4, Bile acid receptor (Homo sapiens, UniProt Q96RI1); experiment: Antagonist activity at FXR in human HepG2 cells incubated for 24 hrs by dual luciferase reporter assay; assay type: cell-based
T4 sequence (Q96RI1 whole entry): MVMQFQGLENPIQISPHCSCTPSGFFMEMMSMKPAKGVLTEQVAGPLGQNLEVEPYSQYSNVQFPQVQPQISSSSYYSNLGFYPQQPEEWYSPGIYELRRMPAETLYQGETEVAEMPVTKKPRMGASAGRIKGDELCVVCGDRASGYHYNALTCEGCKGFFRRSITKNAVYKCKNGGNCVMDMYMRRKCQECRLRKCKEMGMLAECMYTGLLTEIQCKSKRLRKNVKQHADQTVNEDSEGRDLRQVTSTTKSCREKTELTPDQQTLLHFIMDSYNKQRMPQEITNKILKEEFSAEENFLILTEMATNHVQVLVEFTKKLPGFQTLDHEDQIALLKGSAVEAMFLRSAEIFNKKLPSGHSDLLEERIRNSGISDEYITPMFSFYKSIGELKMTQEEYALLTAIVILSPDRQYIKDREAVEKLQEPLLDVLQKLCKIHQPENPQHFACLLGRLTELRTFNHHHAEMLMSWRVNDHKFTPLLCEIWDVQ

[9] = Binding affinity to FXR alpha LBD (unknown origin); parameters: species or system Homo sapiens
[10] = target: T2, G-protein coupled bile acid receptor 1; experiment: Agonist activity at TGR5 in human HEK293 cells assessed as increase in cAMP production; assay type: cell-based
[11] = target: T5, G-protein coupled bile acid receptor 1 (Rattus norvegicus) (UniProt Q80T02); experiment: Agonist activity at TGR5 in rat Primary intestinal cell assessed as stimulation of GLP-1 secretion at 30 uM relative to control; assay type: cell-based; details: filed as agonist
T5 sequence (whole entry): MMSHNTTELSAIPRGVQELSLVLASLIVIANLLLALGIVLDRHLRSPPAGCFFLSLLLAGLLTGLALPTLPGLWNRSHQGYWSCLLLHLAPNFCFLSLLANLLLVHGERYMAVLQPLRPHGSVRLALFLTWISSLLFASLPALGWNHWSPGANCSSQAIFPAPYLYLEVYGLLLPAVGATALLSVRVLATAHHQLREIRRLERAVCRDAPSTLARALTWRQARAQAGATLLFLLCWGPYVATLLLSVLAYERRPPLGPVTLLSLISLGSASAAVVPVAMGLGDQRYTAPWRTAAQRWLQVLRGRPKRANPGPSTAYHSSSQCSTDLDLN

Bile acid receptor [12] = target: T4, Bile acid receptor; experiment: Agonist activity at FXR (unknown origin)
[13] = target: T6, Bile acid receptor (Homo sapiens) (UniProt Q96RI1); experiment: Agonist activity at FXR (unknown origin) by alphascreen assay; details: filed as agonist
T6 sequence (whole entry): T4 sequence (Q96RI1 whole entry)

[14] = target: T2, G-protein coupled bile acid receptor 1; experiment: Agonist activity at human TGR5 transfected in CHO-K1 cells assessed as increase in cAMP production; assay type: cell-based
[15] = target: T7, G-protein coupled bile acid receptor 1 (Mus musculus) (UniProt Q80SS6); experiment: In vivo agonist activity at TGR5 in mouse assessed as increase in GLP-1 secretion level at 30 mg/kg, po relative to control
T7 sequence (whole entry): T1 sequence (Q80SS6 whole entry)

[16] = target: T7, G-protein coupled bile acid receptor 1 (Mus musculus); experiment: In vivo agonist activity at TGR5 in mouse assessed as reduction in blood glucose level at 30 mg/kg, po relative to control; assay type: functional, organism-based; parameters: scale not given: the % may be the effect or the level left
[17] = target: T7, G-protein coupled bile acid receptor 1 (Mus musculus); experiment: In vivo agonist activity at TGR5 in mouse assessed as increase in insulin level at 30 mg/kg, po relative to control
Bile acid receptor [18] = target: T4, Bile acid receptor; experiment: Antagonist activity at FXR (unknown origin) by HTFR assay
Bile acid receptor [19] = target: T4, Bile acid receptor; experiment: Agonist activity at human GST-tagged FXR LBD (193 to 472 residues) by FRET assay

SMILES: Fc1ccccc1-c1ccncc1CN1C(c2ccccc2)=NOC1c1cc(C(F)(F)F)cc(C(F)(F)F)c1 (stereo not drawn)
- pEC50 [5]: 7.10
- Activity [6]: 93%

SMILES: COc1cc(F)ccc1-c1ccncc1N(C)C(=O)c1cc(C(F)(F)F)cc(S(=O)(=O)N2CC3(COC3)C2)c1
- pEC50 [7]: 8.05

SMILES: CN(C)c1cc(Cl)c(C(=O)N(Cc2ccccc2)c2ccc(O)c(C(C)(C)C)c2)c(Cl)c1
- pIC50 (Bile acid receptor [8]): 5.35
- pKd [9]: 5.08

SMILES: O=c1c2nccnc2nc(-c2ccc(F)cc2)n1CCc1ccc(Cl)cc1
- pEC50 [10]: > 5.00

SMILES: O=C(Nc1cc(Cl)ccc1-c1nc2cc(F)c(F)cc2n1CC1CCCCC1)c1ccc(-c2nnn[nH]2)cc1F
- pIC50 (Bile acid receptor [12]): 9.40

SMILES: N#Cc1cc(F)ccc1N(C(=O)COc1cccc2cnccc12)c1ccc(F)cc1Cl
- pEC50 [10]: 5.13

SMILES: CC[C@H]1[C@@H](O)C2C3CC[C@H](C(C)CCOS(=O)(=O)O)[C@@]3(C)CCC2[C@@]2(C)CC[C@@H](O)C[C@@H]12 (stereo partly drawn)
- Activity [13]: 30 nM

SMILES: Fc1cccc(F)c1-c1ccncc1CN1C(c2ccco2)=NO[C@@H]1c1cc(C(F)(F)F)cc(C(F)(F)F)c1Cl
- pEC50 [5]: 8.85
- Activity [6]: 96%

SMILES: O=C(c1cccnc1Oc1cc(Cl)ccc1Cl)N1CCN(C2COC2)c2ccccc21
- solubility [4]: 14 µg/mL (≈ 30.7 µM)

SMILES: O=c1c2ccccc2nc(-c2ccc(F)cc2)n1NCc1ccc(Br)cc1
- Activity [15]: 70%
- Activity [16]: 52%
- pEC50 [10]: > 5.00
- Activity [17]: 130%

SMILES: Fc1ccccc1-c1ccncc1CN1C(c2ccco2)=NOC1c1cc(C(F)(F)F)cc(C(F)(F)F)c1Cl (stereo not drawn)
- pEC50 [5]: 8.25
- Activity [6]: 90%

SMILES: Cc1noc2cc(Cl)c(Oc3ccncc3C(=O)N3CCN(C4CC4)c4ccccc43)cc12
- pEC50 [10]: 9.37

SMILES: O=C(O)c1ccc2nc(N3CCC(OCc4c([C@H]5CCCC[C@@H]5C(F)(F)F)noc4C4CC4)CC3)sc2c1 (stereo in doubt; form 2)
- pEC50 (Bile acid receptor [19]): 6.61

SMILES: Fc1ccc(-n2c(COc3cccc4cnccc34)nc3ccccc32)c(Cl)c1
- pEC50 [10]: 6.64

SMILES: O=C(O)c1ccc2nc(N3CCC(OCc4c([C@H]5CCCC[C@@H]5C(F)(F)F)noc4C4CC4)CC3)sc2c1 (stereo in doubt; form 1)
- pEC50 (Bile acid receptor [19]): 7.19

The remaining lines, values ahead:

- CLH [1]: 1418 mL/min/g
- CLH [2]: 2134 mL/min/g
- pEC50 [3]: 5.59
- solubility [4]: < 1 µg/mL
SMILES: O=C(c1cccnc1Oc1cc(Cl)ccc1Cl)N1CCCc2ccccc21

- pEC50 [7]: 7.54
SMILES: Cc1ccccc1[C@H](C/C(=N/O)C1CCC(=O)N(C)C1)c1ccc(S(C)(=O)=O)cc1 (stereo partly drawn)

- Activity [11]: 251%
SMILES: CN1CC(C)(C)N(C(=O)COc2cccc3cnccc23)c2ccc(F)cc21

- pEC50 [3]: 5.69
SMILES: O=C(c1cccnc1Oc1cccc(C(F)(F)F)c1)N1CCCc2ccccc21

- pEC50 [7]: 8.22
SMILES: Cc1ccccc1[C@H](C/C(=N/O)c1ccc(=O)n(C)n1)c1ccc(Br)cc1

- pEC50 [14]: 7.62
SMILES: Cc1c(Cl)cccc1OCCCC(=O)N1CCC(Cc2cccc(C(=O)NCCS(=O)(=O)O)c2)c2ccccc21 (stereo not drawn)

- pEC50 (Bile acid receptor [18]): 5.22
SMILES: CC(C)c1onc(-c2c(Cl)cccc2Cl)c1COc1ccn(Cc2ccc(-c3ccccc3C(=O)O)cc2)n1

- pEC50 (Bile acid receptor [19]): 9.00
SMILES: O=C(O)c1ccc2cc(N3C4CCC3CC(OCc3c(-c5ccccc5OC(F)(F)F)noc3C3CC3)C4)ccc2c1 (stereo not drawn)
